Measured values taken from US20020187514A1 (priority 1999, published 2002).

What was measured:
Adrenergic, Alpha 2A = Adrenergic, Alpha 2A (Homo sapiens, UniProt P08913); assay: Adrenergic, Alpha 2A (Human); [3H]MK-912; assay type: binding; conditions: read-out: Pass 1 (10^−5 M) % Inhibition
Adrenergic, Beta 2 = Adrenergic, Beta 2 (Homo sapiens, UniProt P07550); assay: biochemical; assay type: binding; conditions: read-out: Pass 1 (10^−5 M) % Inhibition
Cannabinoid, CB1 = target: T1, Cannabinoid, CB1 (Homo sapiens, UniProt P21554); assay: Cannabinoid, CB1 (Human recombinant); [3H]-CP55940; assay type: binding; conditions: read-out: Pass 1 (10^−5 M) % Inhibition
T1 construct: expressed in transfected cells

Dopamine Transporter = Dopamine Transporter (Cavia porcellus, UniProt H0WCX4); assay: biochemical; assay type: binding, Guinea Pig
Dopamine, D2s = target: T2, Dopamine, D2s (Homo sapiens, UniProt P14416); assay: Dopamine, D2s (Human Recombinant); [3H]-Spiperone; assay type: binding; conditions: read-out: Pass 1 (10^−5 M) % Inhibition
T2 construct: expressed in transfected cells

Dopamine, D3 = target: T3, Dopamine, D3 (Rattus norvegicus, UniProt P19020); assay: Dopamine, D3 (Rat Recombinant); [3H]7-OH-DPAT; assay type: binding; conditions: read-out: Pass 1 (10^−5 M) % Inhibition
T3 construct: expressed in transfected cells

GABA A, Agonist Site = assay type: binding
GABA-B = assay type: binding
[1] = test system: Glutamate, NMDA, Glycine (Stry-insens Site); assay type: binding; conditions: 10^−5 M
Imidazoline, I1 = assay: Imidazoline, I1; [125I]-Clonidine; assay type: binding; conditions: 10^−5 M
Opiate, Delta 2 = target: T4, Opiate, Delta 2 (Homo sapiens, UniProt P41143); assay: Opiate, Delta 2 (Human Recombinant); [3H]-Naltrindole; assay type: binding; conditions: read-out: Pass 1 (10^−5 M) % Inhibition
T4 construct: expressed in transfected cells

Opiate, Kappa 1 = Opiate, Kappa 1 (UniProt P41144); assay type: binding
Opiate, Mu = target: T5, Opiate, Mu (Homo sapiens, UniProt P35372); assay: biochemical; assay type: binding; conditions: read-out: Pass 1 (10^−5 M) % Inhibition
T5 construct: expressed in transfected cells

Serotonin, 5HT1A = Serotonin, 5HT1A (Homo sapiens, UniProt P08908); assay: biochemical; assay type: binding; conditions: read-out: Pass 1 (10^−5 M) % Inhibition
Serotonin, 5HT2C = Serotonin, 5HT2C (UniProt K7GSR7); assay type: binding
Complement C5a = Complement C5a (Homo sapiens, UniProt P21730); assay: Complement C5a (Human); [125I]BH-rC5a; assay type: binding; conditions: read-out: Pass 1 (10^−5 M) % Inhibition
Testosterone (cytosolic) = Testosterone (cytosolic) (UniProt P15207); assay type: binding
[2] = test system: GABA, Chloride, TBOB Site; assay type: binding
[3] = test system: Potassium Channel, Ca2+ Act., VS; assay: Potassium Channel, Ca2+ Act., VS; [125I]Charybdotoxin; assay type: binding; conditions: 10^−5 M
[4] = test system: Ahenylate Cyclase, Forskolin; assay: Ahenylate Cyclase, Forskolin; [3H]Forskolin; assay type: binding; conditions: 10^−5 M
Protein Kinase C, PDBu = assay type: binding
[5] = test system: Adenosine Transport (cs + es); assay: Adenosine Transport (cs + es) (Human); [3H]-Adenosine; assay type: biochemical; conditions: 10^−5 M
GABA Transport = assay type: biochemical; conditions: 10^−5 M
Leukotrine B4, LTB4 = assay: Leukotrine B4, LTB4; [3H]LTB4; assay type: binding; conditions: 10^−5 M
Thromboxane A2 = target: T6, Thromboxane A2 (Homo sapiens, UniProt P21731); assay: Thromboxane A2 (Human); [3H]SQ 29,548; assay type: binding; conditions: read-out: Pass 1 (10^−5 M) % Inhibition
T6 construct: from human cell lines; endogenous in cells

[6] = test system: Epidermal Growth Factor, EGF; assay: Epidermal Growth Factor, EGF; [125I]EGF; assay type: binding; conditions: 10^−5 M
[7] = target: T7, Platelet Activating Factor, PAF (Oryctolagus cuniculus, UniProt G1TEI7); assay: Platelet Activating Factor, PAF; [3H]Hexadecyl, PAF; assay type: binding; conditions: read-out: Pass 1 (10^−5 M) % Inhibition
T7 construct: no other source notation after assay name denotes animal cell or animal tissue source; from tissue

Endothelin, ET-B = target: T8, Endothelin, ET-B (Homo sapiens, UniProt P24530); assay: biochemical; assay type: binding; conditions: read-out: Pass 1 (10^−5 M) % Inhibition
T8 construct: expressed in transfected cells

Neurokinin, NK2 (NKA) = target: T9, Neurokinin, NK2 (NKA) (Homo sapiens, UniProt P21452); assay: biochemical; assay type: binding; conditions: read-out: Pass 1 (10^−5 M) % Inhibition
T9 construct: expressed in transfected cells

Neuropeptide, NPY2 = Neuropeptide, NPY2 (Homo sapiens, UniProt P49146); assay: biochemical; assay type: binding; conditions: read-out: Pass 1 (10^−5 M) % Inhibition
[8] = test system: Somatostatin, Non-selective; assay: Somatostatin, Non-selective; [125]-Somatostatin-14 (Tyr11); assay type: binding; conditions: 10^−5 M
Vasopressin 1 = target: T10, Vasopressin 1 (Rattus norvegicus, UniProt P30560); assay: biochemical; assay type: binding; conditions: read-out: Pass 1 (10^−5 M) % Inhibition
T10 construct: no other source notation after assay name denotes animal cell or animal tissue source; from tissue

Vasopressin, V1A = Vasopressin, V1A (Homo sapiens, UniProt P37288); assay: Vasopressin, V1A (Human); [125I]-Via Antagonist; assay type: binding; conditions: read-out: Pass 1 (10^−5 M) % Inhibition
Elastase = target: T11, Elastase (Homo sapiens, UniProt P08246); assay: Elastase (Human); substrate MeO-Suc-Ala-Ala-Pro-Val-pNA; assay type: biochemical; conditions: read-out: Pass 1 (10^−5 M) % Inhibition
T11 construct: from human cell lines; endogenous in cells

[9] = target: T12, Monoamine Oxidase A, Peripheral (Rattus norvegicus, UniProt P21396); assay: biochemical; conditions: read-out: Pass 1 (10^−5 M) % Inhibition
T12 construct: no other source notation after assay name denotes animal cell or animal tissue source; from tissue

[10] = test system: Protein Tyrosine Phosphatase, PTP-B; assay: Protein Tyrosine Phosphatase, PTP-B (Human); substrate pNPP; assay type: biochemical; conditions: 10^−5 M; footnote: not confirmed in QA/QC follow-up
[11] = target: Protein Tyrosine Phosphatase, PTP-CD45 (Homo sapiens, UniProt P08575); assay: Protein Tyrosine Phosphatase, PTP-CD45 (Human); substrate pNPP; assay type: biochemical; conditions: read-out: Pass 1 (10^−5 M) % Inhibition
[12] = test system: Protein Tyrosine Phosphatase, PTP-Cell; assay: Protein Tyrosine Phosphatase, PTP-Cell (Human); substrate pNPP; assay type: biochemical; conditions: 10^−5 M
[13] = target: GABA A, BDZ, alpha 1, central (Bos taurus, UniProt P08219+P22300); assay: biochemical; conditions: read-out: Pass 1 (10^−5 M) % Inhibition
Muscarinic, M2 = Muscarinic, M2 (Homo sapiens, UniProt P08172); assay: biochemical; conditions: read-out: Pass 1 (10^−5 M) % Inhibition
Muscarinic, M3 = Muscarinic, M3 (Homo sapiens, UniProt P20309); assay: biochemical; conditions: read-out: Pass 1 (10^−5 M) % Inhibition

Dopamine Transporter, sequence (H0WCX4 1-619): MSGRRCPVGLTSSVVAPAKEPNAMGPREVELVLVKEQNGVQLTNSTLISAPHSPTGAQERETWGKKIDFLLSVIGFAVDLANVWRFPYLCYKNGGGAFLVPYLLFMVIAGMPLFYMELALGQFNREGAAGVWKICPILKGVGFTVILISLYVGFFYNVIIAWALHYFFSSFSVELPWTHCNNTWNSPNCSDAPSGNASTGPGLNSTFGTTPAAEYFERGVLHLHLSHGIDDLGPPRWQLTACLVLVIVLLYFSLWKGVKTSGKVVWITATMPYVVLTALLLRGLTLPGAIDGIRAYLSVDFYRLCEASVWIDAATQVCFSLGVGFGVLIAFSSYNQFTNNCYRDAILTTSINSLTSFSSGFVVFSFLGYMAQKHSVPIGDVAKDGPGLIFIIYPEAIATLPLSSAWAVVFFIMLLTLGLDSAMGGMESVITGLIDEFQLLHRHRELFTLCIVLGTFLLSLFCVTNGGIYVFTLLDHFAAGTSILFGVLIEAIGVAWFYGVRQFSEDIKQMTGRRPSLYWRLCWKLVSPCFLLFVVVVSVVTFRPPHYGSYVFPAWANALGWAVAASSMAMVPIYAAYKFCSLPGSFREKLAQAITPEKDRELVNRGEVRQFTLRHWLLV
Protein Tyrosine Phosphatase, PTP-CD45, sequence (P08575 26-1306): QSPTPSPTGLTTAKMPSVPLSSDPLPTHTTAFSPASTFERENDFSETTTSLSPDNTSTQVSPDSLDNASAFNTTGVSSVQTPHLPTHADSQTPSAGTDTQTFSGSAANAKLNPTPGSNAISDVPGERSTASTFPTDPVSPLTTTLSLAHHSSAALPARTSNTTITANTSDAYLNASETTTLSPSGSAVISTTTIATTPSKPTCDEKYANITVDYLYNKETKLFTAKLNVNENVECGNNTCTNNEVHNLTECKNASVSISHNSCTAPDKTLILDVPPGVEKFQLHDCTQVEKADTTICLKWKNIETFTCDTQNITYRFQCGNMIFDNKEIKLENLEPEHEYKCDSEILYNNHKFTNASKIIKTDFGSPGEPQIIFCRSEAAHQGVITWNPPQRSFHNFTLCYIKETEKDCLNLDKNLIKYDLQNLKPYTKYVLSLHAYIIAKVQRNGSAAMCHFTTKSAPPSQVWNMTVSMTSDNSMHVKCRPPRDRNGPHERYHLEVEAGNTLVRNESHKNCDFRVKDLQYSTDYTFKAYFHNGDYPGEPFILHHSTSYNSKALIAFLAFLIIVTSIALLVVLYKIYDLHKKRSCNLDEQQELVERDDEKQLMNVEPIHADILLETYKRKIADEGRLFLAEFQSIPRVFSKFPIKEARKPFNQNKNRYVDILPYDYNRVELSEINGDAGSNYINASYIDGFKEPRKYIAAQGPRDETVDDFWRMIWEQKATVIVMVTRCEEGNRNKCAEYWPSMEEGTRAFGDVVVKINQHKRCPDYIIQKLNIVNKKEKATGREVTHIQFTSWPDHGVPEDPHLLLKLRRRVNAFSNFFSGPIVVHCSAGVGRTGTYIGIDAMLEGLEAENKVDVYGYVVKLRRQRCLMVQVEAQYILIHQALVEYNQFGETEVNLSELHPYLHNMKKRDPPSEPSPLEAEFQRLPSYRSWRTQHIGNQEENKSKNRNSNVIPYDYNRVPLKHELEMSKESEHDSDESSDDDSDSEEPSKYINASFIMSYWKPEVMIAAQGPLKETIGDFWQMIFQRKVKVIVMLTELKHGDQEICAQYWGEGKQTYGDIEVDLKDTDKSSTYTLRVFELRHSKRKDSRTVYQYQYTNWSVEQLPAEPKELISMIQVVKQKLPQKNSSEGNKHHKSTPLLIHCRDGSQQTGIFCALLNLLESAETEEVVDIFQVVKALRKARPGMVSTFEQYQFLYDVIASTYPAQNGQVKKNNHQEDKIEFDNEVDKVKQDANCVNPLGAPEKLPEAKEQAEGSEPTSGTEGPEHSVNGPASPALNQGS
Opiate, Kappa 1, sequence (P41144 whole entry): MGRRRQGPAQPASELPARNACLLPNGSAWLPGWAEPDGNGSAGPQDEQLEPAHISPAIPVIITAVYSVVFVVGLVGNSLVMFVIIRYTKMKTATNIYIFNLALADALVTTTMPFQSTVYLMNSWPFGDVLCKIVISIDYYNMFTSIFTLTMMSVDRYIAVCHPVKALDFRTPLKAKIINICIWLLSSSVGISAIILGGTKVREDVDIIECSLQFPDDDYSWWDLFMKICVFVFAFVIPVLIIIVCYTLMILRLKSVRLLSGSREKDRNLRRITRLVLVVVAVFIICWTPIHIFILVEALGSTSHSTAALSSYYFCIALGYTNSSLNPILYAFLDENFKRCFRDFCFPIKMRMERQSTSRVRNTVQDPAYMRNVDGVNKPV
Complement C5a, sequence (P21730 whole entry): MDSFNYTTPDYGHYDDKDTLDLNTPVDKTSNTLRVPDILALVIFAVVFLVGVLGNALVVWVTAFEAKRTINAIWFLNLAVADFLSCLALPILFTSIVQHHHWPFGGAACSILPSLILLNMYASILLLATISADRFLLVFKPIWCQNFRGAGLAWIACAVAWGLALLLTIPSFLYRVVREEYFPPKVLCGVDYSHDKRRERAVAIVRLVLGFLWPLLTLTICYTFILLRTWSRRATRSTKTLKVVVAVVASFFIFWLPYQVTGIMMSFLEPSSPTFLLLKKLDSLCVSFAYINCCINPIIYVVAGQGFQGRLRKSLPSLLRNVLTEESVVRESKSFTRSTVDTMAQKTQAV
T4 sequence (P41143 whole entry): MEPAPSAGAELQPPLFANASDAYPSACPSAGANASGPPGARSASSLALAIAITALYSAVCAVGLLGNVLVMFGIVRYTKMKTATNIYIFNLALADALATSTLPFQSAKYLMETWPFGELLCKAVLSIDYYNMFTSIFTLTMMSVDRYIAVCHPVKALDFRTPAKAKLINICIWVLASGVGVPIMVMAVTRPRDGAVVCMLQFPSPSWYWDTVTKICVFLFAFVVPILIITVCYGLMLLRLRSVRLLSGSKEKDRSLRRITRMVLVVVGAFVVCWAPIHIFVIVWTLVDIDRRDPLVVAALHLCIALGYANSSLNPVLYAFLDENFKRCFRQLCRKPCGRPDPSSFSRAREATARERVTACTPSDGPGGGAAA
Adrenergic, Alpha 2A, sequence (P08913 whole entry): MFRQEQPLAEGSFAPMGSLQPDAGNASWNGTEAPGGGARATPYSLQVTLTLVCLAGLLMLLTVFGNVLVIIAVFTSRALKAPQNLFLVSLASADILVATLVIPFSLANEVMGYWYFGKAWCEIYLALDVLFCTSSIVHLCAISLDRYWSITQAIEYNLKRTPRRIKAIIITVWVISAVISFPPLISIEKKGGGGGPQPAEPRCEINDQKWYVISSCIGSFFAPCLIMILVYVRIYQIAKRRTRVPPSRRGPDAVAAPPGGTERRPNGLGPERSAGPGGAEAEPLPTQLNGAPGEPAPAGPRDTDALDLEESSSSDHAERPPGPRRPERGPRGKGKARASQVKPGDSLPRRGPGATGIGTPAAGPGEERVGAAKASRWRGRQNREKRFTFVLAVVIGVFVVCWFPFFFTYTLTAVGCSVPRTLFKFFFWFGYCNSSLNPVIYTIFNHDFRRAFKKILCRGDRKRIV
Serotonin, 5HT2C, sequence (K7GSR7 1-457): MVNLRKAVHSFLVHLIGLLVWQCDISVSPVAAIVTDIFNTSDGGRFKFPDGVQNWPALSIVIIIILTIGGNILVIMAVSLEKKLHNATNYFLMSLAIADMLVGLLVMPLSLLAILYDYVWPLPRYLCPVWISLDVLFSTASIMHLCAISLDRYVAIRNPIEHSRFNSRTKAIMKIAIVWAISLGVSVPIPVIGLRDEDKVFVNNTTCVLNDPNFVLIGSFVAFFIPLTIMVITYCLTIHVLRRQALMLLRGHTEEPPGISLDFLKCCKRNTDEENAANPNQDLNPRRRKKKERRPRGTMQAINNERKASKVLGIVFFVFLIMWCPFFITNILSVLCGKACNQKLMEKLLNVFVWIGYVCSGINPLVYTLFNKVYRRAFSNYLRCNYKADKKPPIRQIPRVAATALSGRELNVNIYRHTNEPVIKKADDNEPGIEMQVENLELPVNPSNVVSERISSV
T2 sequence (P14416 other isoform, or with tags, fused parts or gaps): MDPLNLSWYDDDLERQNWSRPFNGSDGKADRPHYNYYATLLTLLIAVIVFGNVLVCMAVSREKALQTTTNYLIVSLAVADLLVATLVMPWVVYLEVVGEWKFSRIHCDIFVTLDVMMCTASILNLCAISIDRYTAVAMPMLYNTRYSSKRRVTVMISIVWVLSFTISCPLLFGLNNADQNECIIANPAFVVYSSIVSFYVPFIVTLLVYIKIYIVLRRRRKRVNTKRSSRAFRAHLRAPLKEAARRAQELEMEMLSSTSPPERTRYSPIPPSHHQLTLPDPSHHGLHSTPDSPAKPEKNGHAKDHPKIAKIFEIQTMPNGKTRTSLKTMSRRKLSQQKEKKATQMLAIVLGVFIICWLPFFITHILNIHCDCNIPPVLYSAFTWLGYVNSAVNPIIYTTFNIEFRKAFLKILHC
Neuropeptide, NPY2, sequence (P49146 whole entry): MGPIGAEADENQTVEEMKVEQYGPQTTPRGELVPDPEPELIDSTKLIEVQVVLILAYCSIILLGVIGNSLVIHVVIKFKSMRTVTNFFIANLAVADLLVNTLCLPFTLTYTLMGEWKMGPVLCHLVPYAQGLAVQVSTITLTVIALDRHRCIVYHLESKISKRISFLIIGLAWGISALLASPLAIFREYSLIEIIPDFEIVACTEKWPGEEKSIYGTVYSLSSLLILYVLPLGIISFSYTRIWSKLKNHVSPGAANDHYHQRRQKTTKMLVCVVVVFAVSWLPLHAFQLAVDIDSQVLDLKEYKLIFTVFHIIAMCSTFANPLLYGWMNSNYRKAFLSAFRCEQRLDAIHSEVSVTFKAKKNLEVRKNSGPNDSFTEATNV
T11 sequence (P08246 30-267): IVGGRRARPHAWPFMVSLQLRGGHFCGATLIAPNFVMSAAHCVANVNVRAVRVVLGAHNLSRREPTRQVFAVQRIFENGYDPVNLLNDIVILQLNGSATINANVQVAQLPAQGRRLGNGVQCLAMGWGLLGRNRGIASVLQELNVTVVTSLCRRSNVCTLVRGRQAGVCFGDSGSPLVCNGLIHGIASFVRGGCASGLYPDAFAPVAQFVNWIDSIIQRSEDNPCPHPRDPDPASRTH

COC(=O)[C@H]1[C@@H](OC(=O)c2ccccc2)C[C@@H]2CC[C@H]1N2C [cocaine]
inhibition at 10 µM (Adrenergic, Alpha 2A): 15.3% | inhibition at 10 µM (Adrenergic, Beta 2): -15.6% | inhibition at 10 µM (Cannabinoid, CB1): 33.4% | Ki (Dopamine Transporter): 321 nM | inhibition at 10 µM (Dopamine Transporter; read-out: Pass 1 (10^−5 M) % Inhibition): 91.4% | inhibition at 10 µM (Dopamine, D2s): 30.6% | inhibition at 10 µM (Dopamine, D3): 30.2% | Pass 1 (10^−5 M) % Inhibition (GABA A, Agonist Site): 5.81% | Pass 1 (10^−5 M) % Inhibition (GABA-B): 24.90% | Pass 1 (10^−5 M) % Inhibition [1]: −1.56% | Pass 1 (10^−5 M) % Inhibition (Imidazoline, I1): −0.78% | inhibition at 10 µM (Opiate, Delta 2): 21.5% | Pass 1 (10^−5 M) % Inhibition (Opiate, Kappa 1): 10.19% | inhibition at 10 µM (Opiate, Mu): 3.08% | inhibition at 10 µM (Serotonin, 5HT1A): 7.63% | Pass 1 (10^−5 M) % Inhibition (Serotonin, 5HT2C): 1.44% | inhibition at 10 µM (Complement C5a): 15.2% | Pass 1 (10^−5 M) % Inhibition (Testosterone (cytosolic)): −7.60% | Pass 1 (10^−5 M) % Inhibition [2]: 8.40% | Pass 1 (10^−5 M) % Inhibition [3]: 16.63% | Pass 1 (10^−5 M) % Inhibition [4]: 6.27% | Pass 1 (10^−5 M) % Inhibition (Protein Kinase C, PDBu): −4.44% | Pass 1 (10^−5 M) % Inhibition [5]: 2.79% | Pass 1 (10^−5 M) % Inhibition (GABA Transport): −19.43% | Pass 1 (10^−5 M) % Inhibition (Leukotrine B4, LTB4): 17.06% | inhibition at 10 µM (Thromboxane A2): 22.1% | Pass 1 (10^−5 M) % Inhibition [6]: 10.05% | inhibition at 10 µM [7]: 12.6% | inhibition at 10 µM (Endothelin, ET-B): 0.19% | inhibition at 10 µM (Neurokinin, NK2 (NKA)): 13.7% | inhibition at 10 µM (Neuropeptide, NPY2): 4.27% | Pass 1 (10^−5 M) % Inhibition [8]: −3.54% | inhibition at 10 µM (Vasopressin 1): 0.98% | inhibition at 10 µM (Vasopressin, V1A): -4.37% | inhibition at 10 µM (Elastase): -11.2% | inhibition at 10 µM [9]: 32.8% | Pass 1 (10^−5 M) % Inhibition [10]: 65.03% | inhibition at 10 µM [11]: 12% | Pass 1 (10^−5 M) % Inhibition [12]: −17.63% | inhibition at 10 µM [13]: 9.58% | inhibition at 10 µM (Muscarinic, M2): 3.57% | inhibition at 10 µM (Muscarinic, M3): -8.07%
